Results from patent US8585942B2, “Process and arrangement for producing particles utilizing subcritical fluids” (XSpray Microparticles AB, priority 2007, dated 2013).

Key:
[1] = Particle size characterisation by laser diffraction (Mastersizer 2000); assay type: physicochemical; settings: budesonide particles; for Particle size distribution D(0.1′): diameter for the smallest particles up to 10% of the material analyzed; for Particle size distribution d(0.5)′ (mean particle size): diameter for the smallest particles up to 50% of the material analyzed; for Particle size distribution d(0.9)′: diameter for the smallest particles up to 90% of the material analyzed
Description: The terms “particle size”, “particle size diameter” and “particle size distribution” in this specification refer to values obtained as given in the Experimental Part (laser diffraction by the use of Mastersizer 2000 from Malvern Instruments Ltd, Worcestershire, United Kindom). For the meaning of “mean particle size” or “mean particle diameter” see also the Experimental Part.
A 2% w/v budesonide solution in acetone was introduced into the nozzle of FIG. 2 placed in the arrangement of FIG. 1 (except for the recycling capability) using a separate high-performance liquid chromatography pump 1.4 ml/min, together with the 125 g/min scCO2 (about 150 ml/min) which was modified with the make-up agent 4.2 ml/min acetone. The pressure in the system was 100 atm. and temperature was at 60° C. All of the streams contact within the nozzle and the budesonide powder formed and collected in the particle collecting chamber. The scCO2 and acetone was drained via the backpressure regulator outlet. Then, a further washing process was performed to eliminate the solvent mixed in the scCO2. After the washing process, the CO2 was slowly drained off from the chamber. Once the CO2 had been completely removed, the particles on the filter and on the wall were collected for analysis. The particles were characterized by laser diffraction in Mastersizer 2000 (Malvern Instruments Ltd, Worcestershire, United Kingdom).

[2] = Particle morphology and size by scanning electron microscope (TM-1000 Hitachi); assay type: physicochemical; settings: Example 6: solvent acetone, fluid water 10 ml/min, solution 0.2 ml/min, coaxial tube nozzle (FIG. 6)
Procedure: It had two high pressure pumps (Jasco PU 980). One of the pump (624b) is used to feed the solution (0.2 ml/min Piroxicam in acetone (2% w/v)) (602) via a transport conduit (621) and the other pump (624a) is used to feed 10 ml/min water (fluid, anti-solvent) (603) via transport conduit (616) to a spray nozzle (601) placed in a particle collection chamber (605) containing at its outlet (625) a function for separating particles (filter) (615). The nozzle internal transport conduits were two stainless steel tubes (610,612) that were placed coaxially to each other with the inner one (612) connected to the pump (624b) for the solution and the outer one (610) to the pump (624a) for fluid. […] Particle sizes were determined to be less than 3 μm. […]
A high pressure pump (Thar P50) (724a) is used to feed 50 ml/min water (fluid, anti-solvent) (703) via a transport conduit (716) and a high pressure pump (Jasco PU 980) (724b) is used to feed 1 ml/min solution of Piroxicam in acetone (2% w/v) (702) via transport conduit (721) to a nozzle (701) placed in a particle collecting chamber (705) containing at its outlet (725) a particle separation function in the form of a filter cup (715). […] The morphology and size of the crystals in the filter cup is determined using TM1000 Hitachi scanning electron microscope. Particle sizes were determined to be between 0.5 μm to 2 μm. […]

| Compound | Spec. Surface Area [1] | Particle size distribution D(0.1′) [1] | Particle size distribution d(0.5)′ (mean particle size) [1] | Particle size distribution d(0.9)′ [1] | Particle sizes [2] |
| --- | --- | --- | --- | --- | --- |
| CCCC1O[C@@H]2C[C@H]3[C@@H]4CCC5=CC(=O)C=C[C@]5(C)[C@H]4[C@@H](O)C[C@]3(C)[C@]2(C(=O)CO)O1 (stereo partly drawn) [Example 2, budesonide] | 1.7 m^2/g | ≦1.1 μm | ≦1.9 μm | ≦3.4 μm | – |
| CCCC1O[C@@H]2C[C@H]3[C@@H]4CCC5=CC(=O)C=C[C@]5(C)[C@H]4[C@@H](O)C[C@]3(C)[C@]2(C(=O)CO)O1 (stereo partly drawn) [Example 3, budesonide] | 1.6 m^2/g | ≦2.2 μm | ≦4.2 μm | ≦8.7 μm | – |
| CN1C(C(=O)Nc2ccccn2)=C(O)c2ccccc2S1(=O)=O [Piroxicam] | – | – | – | – | less than 3 μm |
| CCCC1O[C@@H]2C[C@H]3[C@@H]4CCC5=CC(=O)C=C[C@]5(C)[C@H]4[C@@H](O)C[C@]3(C)[C@]2(C(=O)CO)O1 (stereo partly drawn) [Example 1, budesonide] | 1.7 m^2/g | ≦1.9 μm | ≦4.0 μm | ≦7.9 μm | – |
| CCCC1O[C@@H]2C[C@H]3[C@@H]4CCC5=CC(=O)C=C[C@]5(C)[C@H]4[C@@H](O)C[C@]3(C)[C@]2(C(=O)CO)O1 (stereo partly drawn) [Example 5, budesonide] | 1.7 m^2/g | ≦2.0 μm | ≦4.1 μm | ≦7.9 μm | – |
| CCCC1O[C@@H]2C[C@H]3[C@@H]4CCC5=CC(=O)C=C[C@]5(C)[C@H]4[C@@H](O)C[C@]3(C)[C@]2(C(=O)CO)O1 (stereo partly drawn) [Example 4, budesonide] | 0.6 m^2/g | ≦6.3 μm | ≦14.2 μm | ≦26.7 μm | – |
